Results as given in patent publication US6143780A, “N-arylmethylthioanilide compounds useful for the inhibition of the replication of HIV” (Uniroyal Chemical Company, Inc., priority 1999, dated 2000).
pEC50: −log10 of the molar value. Where “and” joins values, the source holds several entries; their conditions need not be identical. Equal entries are not always repeated. Where two headings read alike, the source gives them in different places.

Tested on: HIV-1 (IIIB)
Test: inhibition of HIV-1(IIIB) (WT) induced syncytium formation in CEM cells
Assay type: cell-based
Conditions: Table 2, day 4 post infection, replicate values, read-out: EC50, Activity Against HIV-1 (IIIB)
From the text: CEM cells were obtained from the American Tissue Cell Culture Collection (Rockville, Md.) . HIV-1 (IIIB) was originally obtained from the culture supernatant of persistently HIV-1-infected H9 cells and was provided by R. C. Gallo and M. Popovic (National Cancer Institute, National Institutes of Health, Bethesda, Md.).
CEM cells were suspended at ≈300,000 cells per ml of culture medium and infected with approximately 100 CCID50 (CCID50 being the 50% cell culture infective dose) of HIV-1(IIIB) (designated as "WT" in Table 3) or one of the HIV-1 RT mutant strains described above. Then 100 μl of the infected cell suspensions was added to 200 μl microtiter plate wells containing 100 μl of appropriate serial (5-fold) dilutions of the test compounds. The inhibitiory effect of the test compounds on HIV-1 induced syncytium formation in CEM cells was examined microscopically on day 4 post infection. The 50% effective concentration (EC50) was defined as the test compound concentration that inhibits syncytium formation in the HIV-1-infected cell cultures by 50%.

[1] = Human immunodeficiency virus 1, IIIB, CCRF-CEM, 96 h

| pEC50 | pEC50 [1] | Compound |
| --- | --- | --- |
| 5.00 and 5.05 and 5.43 and 5.37 | – | CCCOc1ccccc1OCc1cc(NC(=S)c2ccoc2C)ccc1Cl [Compound 55] |
| – | 8.69 | Cc1occc1C(=O)Nc1ccc(Br)c(COc2c(F)ccc(F)c2F)c1 [Compound 61] |
| 6.71 and 6.09 and 6.26 and 6.10 | – | Cc1occc1C(=O)Nc1ccc(Br)c(COc2ccccc2C(F)(F)F)c1 [Compound 62] |
| 8.12 | 8.13 | COc1cccc(F)c1OCc1cc(NC(=O)c2ccoc2C)ccc1Br [Compound 63] |
| 4.83 and 4.92 | – | Cc1occc1C(=O)Nc1ccc(Cl)c(CSc2ccccc2F)c1 [Compound 72] |
| 6.57 and 6.88 and 6.83 | – | COC(=O)c1sccc1OCc1cc(NC(=S)c2ccoc2C)ccc1Cl [Compound 74] |
| 7.02 | 7.06 | Cc1occc1C(=S)Nc1ccc(Cl)c(OCc2sccc2Br)c1 [Compound 76] |
| 6.60 and 6.52 and 5.95 | – | Cc1occc1C(=S)Nc1ccc(Cl)c(CS(=O)(=O)c2ccccc2Cl)c1 [Compound 77] |
| 5.55 and 5.52 and 5.48 and 5.78 and 6.21 | – | Cc1occc1C(=O)Nc1ccc(Cl)c(CSc2ccccn2)c1 [Compound 79] |
| 5.84 and 5.50 and 5.61 | – | Cc1occc1COc1cc(NC(=O)c2ccoc2C)ccc1Cl [Compound 82] |

The remaining lines, values behind:

| Compound | pEC50 | pEC50 [1] |
| --- | --- | --- |
| CC(=NN(C)C)c1ccccc1OCc1cc(NC(=O)c2ccoc2C)ccc1Cl [Compound 56] | 5.54 and 5.45 | 5.65 |
| Cc1occc1C(=S)Nc1ccc(Cl)c(COc2ccccc2C=NN(C)C)c1 [Compound 57] | 6.67 and 7.12 and 7.10 | – |
| Cc1occc1C(=O)Nc1ccc(Cl)c(COc2c(F)c(F)cc(F)c2F)c1 [Compound 58] | 6.55 | 6.32 |
| Cc1occc1C(=S)Nc1ccc(Cl)c(COc2c(F)c(F)c(F)c(F)c2F)c1 [Compound 59] | 6.93 | 6.70 |
| Cc1occc1C(=S)Nc1ccc(Cl)c(COc2c(F)c(F)cc(F)c2F)c1 [Compound 60] | 7.97 and 8.34 | – |
| Cc1occc1C(=S)Nc1ccc(Br)c(COc2ccccc2C(F)(F)F)c1 [Compound 65] | 9.55 | 9.54 |
| Cc1occc1C(=O)Nc1ccc(Cl)c(OCc2ccccc2F)c1 [Compound 69] | 6.44 and 6.50 and 6.61 | – |
| Cc1occc1C(=S)Nc1ccc(Cl)c(OCc2ccccc2F)c1 [Compound 70] | 8.01 | 7.91 |
| Cc1occc1C(=S)Nc1ccc(Cl)c(CSc2ccccc2F)c1 [Compound 71] | 6.47 and 6.89 and 6.40 | – |
| COC(=O)c1sccc1OCc1cc(NC(=O)c2ccoc2C)ccc1Cl [Compound 73] | 3.88 and 4.67 | – |
| Cc1occc1C(=O)Nc1ccc(Cl)c(OCc2sccc2Br)c1 [Compound 75] | 6.23 and 5.82 and 5.59 | – |
| Cc1occc1C(=S)Nc1ccc(Cl)c(CSc2ncccn2)c1 [Compound 78] | 6.52 and 6.16 and 6.43 | – |
| Cc1occc1C(=S)Nc1ccc(Cl)c(CSc2ccccn2)c1 [Compound 80] | 6.82 | 6.66 |
| Cc1occc1C(=O)Nc1ccc(Cl)c(COc2cccnc2)c1 [Compound 81] | 5.26 and 5.43 | – |
| Cc1occc1C(=S)Nc1ccc(Cl)c(CSc2ccncc2)c1 [Compound 83] | 4.88 and 4.92 | 4.78 |
| Cc1occc1COc1cc(NC(=S)c2ccoc2C)ccc1Cl [Compound 84] | 7.18 and 6.59 | – |
| Cc1occc1C(=S)Nc1ccc(Cl)c(COc2cccnc2)c1 [Compound 85] | 6.68 | 6.82 |
